# In patent publication US20250009743A1, “METHODS OF TREATING CANCERS USING STING AGONISTS” (Dana-Farber Cancer Institute, Inc., priority 2021, published 2025):
# What was measured:
# BP tumor cells = assay: DNA damage in BP tumor cells (cytosolic dsDNA staining, γ-H2AX flow cytometry); assay type: cell-based, mouse
# Method: (§1) For flow cytometry analyses of tumor and TDLN samples, single-cell suspensions were obtained as described above (Tissue Digestion). Cells were stained in cold FACS buffer (PBS containing 0.2% BSA and 5 mM EDTA) with LIVE/DEAD Fixable Aqua Dead Cell Stain (Thermo Fisher) for 30 min on ice, followed by blocking with anti-CD16/32 (BioLegend) for 20 min on ice. Cells were then incubated in FACS buffer for 30 min on ice with antibodies specific to CD45 (clone 30-F11, BioLegend), TCR β chain (clone H57-597, BioLegend), CD38 (clone 145-2C11, BioLegend), CD4 (clone RM4-5, BioLegend), CD8a (clone 53-6.7, BioLegend), PD-1 (clone 29F.1A12, BioLegend), CD44 (clone IM7, BioLegend), CD62L (clone MEL-14, BioLegend), IFN-γ (clone XMG1.2, BioLegend), TNF-α (clone MP6-XT22, BioLegend), Granzyme B (clone NGZB, eBioscience), CD11c (clone N418, BioLegend), I-A/I-E (clone M5/114.15.2, BioLegend), CD80 (clone 16-10A1, BioLegend), CD86 (clone GL-1, BioLegend), CD103 (clone 2E7, BioLegend), CD11b (M1/70, BioLegend), F4/80 (clone BM8, BioLegend), phospho-TBK1 (Ser172) (clone D52C2, Cell Signaling Tech.) or phospho-IRF-3 (Ser396) (clone D601M, Cell Signaling Tech.). For intracellular staining, Foxp3/Transcription Factor Staining Buffer Set (eBioscience, #00-5523-00) was used for fixation and permeabilization. For cytokine analysis, cells were stimulated with Leukocyte Activation Cocktail with protein transport inhibitor Brefeldin A (BD Biosciences, #550583) at 37° C. for 4 hours prior to the staining. Analysis of ϵ-HA2X (Ser139) was performed according to manufacturer's instructions. Briefly, ice-cold 70% ethanol (Decon) was added dropwise to the cell pellet while vortexing. Cells were then incubated at −20° C. for 1 hour and washed three times with cold staining buffer. […] All data were analyzed using FlowJo software.
# BRCA1-deficient tumor cells were cultured on glass coverslips in 6-well plates. […] Fluorescence intensity of cytosolic dsDNA were analyzed using ImageJ/Fiji software as described in Pantelidou C, et al. Cancer Discov 2019; 9 (6): 722-37.
# bone marrow-derived DCs = assay: STING pathway activation in DCs co-cultured with BP tumor cells; assay type: cell-based, mouse
# Method: as §1, with “permeabilization.” for “permeabilization. For cytokine analysis, cells were stimulated with Leukocyte Activation Cocktail with protein transport inhibitor Brefeldin A (BD Biosciences, #550583) at 37° C. for 4 hours prior to the staining. Analysis of ϵ-HA2X (Ser139) was performed according to manufacturer's instructions. Briefly, ice-cold 70% ethanol (Decon) was added dropwise to the cell pellet while vortexing. Cells were then incubated at −20° C. for 1 hour and washed three times with cold staining buffer.”, “software. […]” for “software.”
# human BMDMs = assay: Polarization of human BMDMs cultured in CM from ovarian PDXs; assay type: cell-based
# Method: For ex vivo culture of human macrophages, human BMDMs were generated from bone marrow mononuclear cells (BMMs) (CAT #70001) obtained from […] Technologies. Briefly, BMMs were cultured in DMEM containing 10% FBS, 55 μM 2-Mercaptoethanol (CAT #21985023, Thermo Fisher) and 50 ng/ml M-CSF for 5-7 days with media replacement every 3 days to obtain matured macrophages (BMDMs). […] Flow cytometry analysis was preformed to analyze the phenotypes of macrophages for both mouse and human BMDMs.
# BP tumors = assay: Flow cytometry of intratumoral immune cells of BP tumors; assay type: in vivo, mouse
# Method: To obtain single-cell suspensions, tumors were excised, minced and dissociated in collagenase/hyaluronidase buffer [DMEM with 5% FBS, 10 mM HEPES (Gibco), 100 μg/mL penicillin-streptomycin, 20 μg/mL DNase I (StemCell) and 1× collagenase/hyaluronidase (StemCell)] for 45 min at 37° C. with agitation, followed by treatment with ammonium-chloride-potassium (ACK) buffer (Lonza) for red blood cell (RBC) lysis, and strained through a 70 μm strainer to remove undigested tumor tissues. Spleens and tumor-draining lymph nodes (TDLNs) were mechanically dissociated by passing the tissues through a 70 μm strainer using the plunger of a 5 ml syringe, and RBCs were lysed as described above.
# as §1, with “buffer. For the staining, 5 μL p-HA2X antibody (clone 2F3, BioLegend) was added to approximately 1×10^6 cells in 100 μL staining buffer and incubated at 4° C. for 30 min. For Annexin V and 7-AAD staining, cells were detached with accutase (Sigma, #A6964).” for “buffer.”
smiles,measurement,setting,value
O=C(c1cc(Cc2n[nH]c(=O)c3ccccc23)ccc1F)N1CCN(C(=O)C2CC2)CC1 [olaparib],cytosolic dsDNA,"BP tumor cells; 5 μM olaparib, two days, FIG. 5B",induced accumulation of cytosolic dsDNAs
same,γ-H2AX,"BP tumor cells; olaparib, FIG. 5C",two-fold increase
same,STING pathway activation (p-TBK1+ p-IRF3+) in DCs,"bone marrow-derived DCs; DCs co-cultured 24 hours with olaparib-treated BP cells, FIG. 5I",activated the STING pathway in DCs
same,M2-like polarization induced by ovarian PDXs,"human BMDMs; CM of olaparib-treated PDXs, FIG. 25C",further enhance
same,population of tumor-associated macrophages (TAMs),BP tumors; 21 days of treatment,not significantly affected
same,CD8+ T cells and effector CD8+ T cells in tumors,BP tumors; after seven days of treatment,not significantly changed
same,proportion of PD-1+CD8+ T cells,BP tumors; after seven days of treatment,increased
COc1cc2cc(C(=O)CCC(=O)O)sc2cc1OC [MSA-2],M2-like macrophage polarization induced by ovarian PDXs,"human BMDMs; MSA-2 added, FIG. 25E",reversed
"Cc1ccc2c(=O)c3cccc(CC(=O)O)c3oc2c1C [DMXAA, 5,6-dimethyl-xanthenone-4-acetic acid]",BP cells' DNA damage (gH2AX) in response to olaparib,"BP tumor cells; BP cells treated with CM of DMXAA-pre-treated TEMs, FIG. 7I",restored
same,activation of STING pathway in co-cultured DCs,"bone marrow-derived DCs; BP cells treated with CM of DMXAA-pre-treated TEMs, then olaparib, FIG. 7I",restored
same,"production of anti-tumor cytokines (IFNg, Granzyme B, TNFa) in CD8+ and CD4+ T cells","BP tumors; after 21 days of treatments, DMXAA intratumoral, FIG. 9B-9C",strongly up-regulated
